Experimental data published in US20230414638A1, “S[…] COMPOUNDS AS AMPK ACTIVATOR AND USES THEREOF” (SOCIETE DES PRODUITS NESTLE S.A., priority 2020, published 2023).
Entries after “also recorded” stand apart in the source; their conditions may differ.

Columns and labels:
AMPK = assay: pACC HTRF assay (Cisbio) in U-2 OS Flp-In T-REx cells; format: cell-based; conditions: varying concentrations, 30 mins at 37 C
Protocol: U-2 OS Flp-In T-REx cells were seeded at 50 K in a 96-well plate and left overnight at 37 C in DMEM GlutaMAX (Thermo Fisher Scientific) supplemented with 10% (vol/vol) FBS and 100 U/ml penicillin G, and 100 μg/ml streptomycin. Cells were treated for 30 mins with varying concentrations of Compound 1 in media lacking FBS and then cells were lysed in 50 μl of Cisbio lysis buffer #1 supplemented with blocking solution as per the manufacturer's protocol (Cisbio). Compound 1 is 2,4-dihydroxy-3-[(1R,6R)-3-methyl-6-prop-1-en-2-ylcyclohex-2-en-1-yl]-6-pentylbenzoic acid, also known as Cannabidiolic acid, CAS number: 1244-58-2.
Cells were lysed for 30 mins at room temperature before 16 μl of lysate was incubated with 4 μl of the HTRF antibodies (1:40 dilution of the acceptor and donor (p)ACC antibodies, as per the manufacturers protocol). Lysates were incubated overnight with the antibodies before 665 nm/620 nm ratio was determined using a MolecularDevices i3 plate reader (with a HTRF cartridge add-on).

AMPK β1 WT = assay: pACC HTRF assay in AMPKβ1/β2 double knockout U-2 OS cells stably expressing β1 WT; format: cell-based, human; conditions: AMPKβ1β2 double knockout cells stably expressing β1 WT, varying concentrations, 30 mins at 37 C
From the text: (§1) A MPKβ1/β2 double knockout U-2 OS Flp-In™ T-Rex™ cell lines were generated by Horizon Discovery (Cambridge, UK). Cells were genotyped and analysed by western blotting to confirm that there was a complete knockout of AMPKβ1/β2. We took these AMPKβ1/β2 double knockout cells, and re-introduced the expression of human β1 wild-type (WT) or a β1 Serine 108 to alanine mutation (S108A). This was achieved using the Flp-In™ system (Invitrogen) present in this cell line and stable cells expressing β1 WT or a β1 S108A mutant were generated according to the manufacturers' protocols. Re-expression of the β1 subunit was confirmed by western blot analysis.
(§2) Cells stably expressing β1 WT or a β1 S108A mutant were treated with varying concentrations of Compound 1 and subjected to the pACC HTRF (Cisbio) assay to determine the level of phosphorylation of the AMPK substrate, ACC, in cell lysates, as in example 1.
We took AMPKβ1/β2 double knockout cells, and re-introduced the expression of human […] or β2 WT isoforms. […] Cells stably expressing β1 WT or β2 were treated with varying concentrations of compound 1 and subjected to the pACC HTRF (Cisbio) assay to determine the level of phosphorylation of the AMPK substrate, ACC, in cell lysates, as in example 1. […]

[1] = system: ADaM-binding site AMPK mutant (β1 S108A); assay: pACC HTRF assay in AMPKβ1/β2 double knockout U-2 OS cells stably expressing β1 S108A mutant; format: cell-based, human; conditions: AMPKβ1β2 double knockout cells stably expressing β1 S108A mutant, varying concentrations, 30 mins at 37 C
From the text: as §1, §2

[2] = system: β2-containing AMPK complexes; assay: pACC HTRF assay in AMPKβ1/β2 double knockout U-2 OS cells stably expressing β2 WT; format: cell-based, human; conditions: AMPKβ1β2 double knockout cells stably expressing β2 WT, varying concentrations, 30 mins at 37 C
Protocol: We took AMPKβ1/β2 double knockout cells, and re-introduced the expression of human […] or β2 WT isoforms. […] Cells stably expressing β1 WT or β2 were treated with varying concentrations of compound 1 and subjected to the pACC HTRF (Cisbio) assay to determine the level of phosphorylation of the AMPK substrate, ACC, in cell lysates, as in example 1. […] This activation profile is characteristic of activators that bind to the ADaM site and consistent with previous studies showing that ADaM-site activators have poorer activation of β2-containing complexes in vitro and in cells.

[3] = system: primary mouse hepatocytes; assay: Lipogenesis ([1-14C]-acetate incorporation into fatty acids) in primary hepatocytes; format: cell-based; conditions: varying concentrations, 1 h at 37 C
Protocol: Hepatocyte isolation: The liver was first perfused with 50 ml perfusion buffer (Krebs-Hepes buffer with […] EDTA), followed with 50 ml collagenase A buffer (Krebs-Hepes buffer with 5 mM CaCl2) and 0.5 mg/ml collagenase). After passage through a 100 μm mesh, the cell solution was washed several times with cold media and finally the cell culture pellet was resuspended in culture medium (medium 199 (M199)+GlutaMAX, 100 U/ml penicillin G, and 100 μg/ml streptomycin, 0.1% (wt/vol) BSA, 10% FCS, 10 nM insulin, 200 nM triiodothyronine and 500 nM dexamethasone). Hepatocytes were left to attach (3-4 h) and cultured overnight in M199 supplemented with antibiotics and 100 nM dexamethasone. Cells were used for experiments the following morning.
For lipogenesis measurements in primary hepatocytes, cells were seeded at 600 K cells per well in a 6-well plate overnight. Media was replaced with fresh M199 media alone for 2 hours prior to incubation with varying concentrations of compound 1 for 1 h at 37 C, in the presence of [1-14C]-acetate. The incorporation of [14C] into fatty acids was determined in the lower organic layer after separation from the aqueous phase.

In the case of `C=C(C)[C@@H]1CCC(C)=C[C@H]1c1c(O)cc(CCCCC)c(C(=O)O)c1O` [Compound 1, 2,4-dihydroxy-3-[(1R,6R)-3-methyl-6-prop-1-en-2-ylcyclohex-2-en-1-yl]-6-pentylbenzoic acid], the “Phosphorylation of ACC (fold increase in activation)” value (AMPK) was “increased the phosphorylation of the AMPK substrate, acetyl-CoA carboxylase (ACC); also recorded: increases the phosphorylation of the AMPK substrate, ACC, in a dose-dependent manner”, the “Phosphorylation of ACC (fold increase in activation)” value (AMPK β1 WT) was “able to dose-dependently increase pACC” and the “Phosphorylation of ACC (fold increase in activation)” value [1] was “did not activate AMPK; also recorded: not able to increase pACC”. The “Phosphorylation of ACC (fold increase in activation)” value [2] was “impaired activation of AMPK; also recorded: impaired ability of compound 1 to increase pACC” and the “Lipogenesis (percentage compared to the no treatment control)” value [3] was “dose-dependent inhibition of lipogenesis; also recorded: able to inhibit lipogenesis in a dose-dependent manner”.
